The values below come from patent publication US20250009877A1, “TREATMENT FOR CANCER” (Seagen Inc., priority 2021, published 2025).

The target of assay [1] is murine CD40 (Mus musculus, UniProt P27512). As to the kind of experiment: Recognition of murine CD40. The class given is binding.
Assay [2] has as its system interleukin-10 (IL-10). As to the kind of experiment: Induction of immune-dampening cytokines. Conditions: unlike fully agonistic antibodies such as antibody 24.4.1.
The subject of assay [3] is CD40 signaling pathway. Conditions: compared to the parent antibody dacetuzumab; cited from earlier work.
The test system of assay [4] is FcγIII receptors. The settings on record: compared to the fucosylated parent antibody dacetuzumab; cited from earlier work.

murine CD40, sequence (P27512 20-289): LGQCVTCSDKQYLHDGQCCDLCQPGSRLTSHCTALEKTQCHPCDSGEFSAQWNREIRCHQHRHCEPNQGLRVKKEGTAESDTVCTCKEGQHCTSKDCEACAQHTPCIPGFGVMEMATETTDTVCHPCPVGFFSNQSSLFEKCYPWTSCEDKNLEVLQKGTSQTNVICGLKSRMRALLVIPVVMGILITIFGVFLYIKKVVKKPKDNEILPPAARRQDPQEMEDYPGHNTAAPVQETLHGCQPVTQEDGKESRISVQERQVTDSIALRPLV

Take “SEA-CD40: non-fucosylated humanized S2C6 anti-CD40 antibody; heavy chain SEQ ID NO: 1, light chain SEQ ID NO: 2; parent antibody dacetuzumab”: the “recognition of murine CD40” value in assay [1] is recorded as “does not recognize”. Besides, in assay [2], the “production of immune-dampening cytokines such as interleukin-10 (IL-10)” value is on record as “does not induce production”. Further, in assay [3], the “ability to activate the CD40 signaling pathway in immune cells” value is “enhanced ability to activate”. Also, the “binding to FcγIII receptors” value in assay [4] is “enhanced binding”.
